The text below walks through data of PMC6271890, “Synthesis and Antiproliferative Activity of Some Novel Triazole Derivatives from Dehydroabietic Acid” (Molecules, 2014).

For series [1], the system named is gastric epithelial adenocarcinoma (AGS) cells. In words: Antiproliferative assay (MTT reduction), AGS cells. The class given is cell-based, human. The arrangement: key to antiproliferative activity in words, AGS: IC50 values > 100 µM were considered inactive. To be noted: for IC50: Homo sapiens, 72 h, AGS gastric adenocarcinoma cells, 3 days treatment, MTT, mean ± SD. As for the experimental part: (§1) All human cell lines used in this work were purchased from the American Type Culture Collection (ATCC, Manasas, VA, USA). Normal lung MRC-5 fibroblasts (CCL-171), SK-MES-1 lung cancer cells (HTB-58) and J82 bladder carcinoma cells (HTB-1) were grown as monolayers in minimum essential Eagle medium (MEM) with Earles’s salts, 2 mM L-glutamine and 1.5 g/L sodium bicarbonate. Gastric adenocarcinoma AGS cells (CRL-1739) were grown as monolayers in Ham F-12 medium containing 1 mM L-glutamine and 1.5 g/L sodium bicarbonate. All media were supplemented with 10% heat-inactivated FBS, 100 IU/mL penicillin and 100 µg/mL streptomycin. Cells were grown in a humidified incubator with 5% CO2 in air at 37 °C. For the antiproliferative assay, cells were plated at a density of 5 × 10^4 cells/mL. Cells were seeded in 96-well plates (100 µL/well). One day after seeding, cells were treated with medium containing the compounds at concentrations ranging from 0 up to 100 µM during 3 days. The compounds were dissolved in DMSO (1% final concentration) and complete medium. Untreated cells (medium containing 1% DMSO) were used as 100% viability controls. […] Each concentration was tested in sextuplicate and experiments were repeated 2 times. Cell viability was determined by means of the MTT reduction assay at the end of the incubation with the products. The results were transformed to percentage of controls and the IC50 value was obtained adjusting the dose-response curve to a sigmoidal model. The software used was OriginPro 8.1 [23].

Series [2] deals with lung cancer (SK-MES-1) cells. In words: Antiproliferative assay (MTT reduction), SK-MES-1 cells. To be noted: for IC50: Homo sapiens, 72 h, SK-MES-1 lung cancer cells, 3 days treatment, MTT, mean ± SD; for antiproliferative activity in words, SK-MES-1: SK-MES-1 cells. In kind it is cell-based, human. As to the method:
as §1, with “Normal lung MRC-5 fibroblasts (CCL-171), SK-MES-1 lung cancer cells (HTB-58) and J82 bladder carcinoma cells (HTB-1) were grown as monolayers in minimum essential Eagle medium (MEM) with Earles’s salts, 2 mM L-glutamine and 1.5 g/L sodium bicarbonate. Gastric adenocarcinoma AGS cells (CRL-1739) were grown as monolayers in Ham F-12 medium containing 1 mM L-glutamine and 1.5 g/L sodium bicarbonate.” left out, “The results were transformed to percentage of controls and the IC50 value was obtained adjusting the dose-response curve to a sigmoidal model.” left out
On the technique in general: Formazan colour is commonly taken as a measure of viable cells.

Series [3] deals with bladder carcinoma (J82) cells. As to the kind of experiment: Antiproliferative assay (MTT reduction), J82 cells. Particulars: for IC50: Homo sapiens, 72 h, J82 bladder carcinoma cells, 3 days treatment, MTT, mean ± SD. The class given is cell-based, human. The arrangement: key to antiproliferative activity in words, J82: IC50 values > 100 µM were considered inactive. As to the method: as §1

For series [4], the system named is normal lung fibroblasts (MRC-5). As to the kind of experiment: Antiproliferative assay (MTT reduction), MRC-5 fibroblasts. Particulars: for IC50: Homo sapiens, MRC5, 72 h, MRC-5 normal lung fibroblasts, 3 days treatment, MTT, mean ± SD; for antiproliferative activity in words, MRC-5: MRC-5 fibroblasts. The arrangement: key to antiproliferative activity in words, MRC-5: IC50 values > 100 µM were considered inactive. The class given is cell-based, human. As to the method: as §1, with “Normal lung MRC-5 fibroblasts (CCL-171), SK-MES-1 lung cancer cells (HTB-58) and J82 bladder carcinoma cells (HTB-1) were grown as monolayers in minimum essential Eagle medium (MEM) with Earles’s salts, 2 mM L-glutamine and 1.5 g/L sodium bicarbonate. Gastric adenocarcinoma AGS cells (CRL-1739) were grown as monolayers in Ham F-12 medium containing 1 mM L-glutamine and 1.5 g/L sodium bicarbonate.” left out, “The results were transformed to percentage of controls and the IC50 value was obtained adjusting the dose-response curve to a sigmoidal model.” left out

Series [5] relates to MCF-7, Hela and liver cancer 7721 cells. The arrangement: method as in PMID 21345546. Particulars: range over MCF-7, Hela and liver cancer 7721 cells; read-out: IC50 values (cytotoxicity); cited from earlier work.

The IC50 is the point on the concentration scale where inhibition reaches its midpoint. As to `CC(C)c1ccc2c(c1)CCC1[C@](C)(C(=O)OCc3cn(-c4ccccc4)nn3)CCC[C@]21C` (some centres unmarked) [Compound 1, 18-((1-Phenyl-1H-1,2,3-triazol-4-yl)methyl)-8,11,13-abietatrienoate], the half-inhibitory concentration (IC50) worked out at 79.9 ± 4.8 µM in series [1], 77.3 ± 4.7 µM in series [2], 46.3 ± 2.3 µM in series [3] and 85.8 ± 4.6 µM in series [4].
Take `CC(C)c1ccc2c(c1)CCC1[C@](C)(C(=O)OCCc3cn(-c4ccccc4)nn3)CCC[C@]21C` (some centres unmarked) [Compound 2, 18-(2-(1-Phenyl-1H-1,2,3-triazol-4-yl)ethyl)-8,11,13-abietatrienoate]: the IC50 in series [1] is 90.2 ± 5.4 µM; in series [2], greater than 100 µM; in series [3], 76.3 ± 5.9 µM; in series [4], greater than 100 µM. The “antiproliferative activity in words, SK-MES-1” value in series [2] was “inactive”. Further, the “antiproliferative activity in words, MRC-5” value in series [4] was “inactive”.
For `CC(C)c1ccc2c(c1)CCC1[C@](C)(C(=O)OCc3cn(CSc4ccccc4)nn3)CCC[C@]21C` (some centres unmarked) [Compound 3, 18-((((1-Phenylthio)methyl)-1H-1,2,3-triazol-4-yl)methyl)-8,11,13-abietatrienoate], the IC50 in series [1] is 94.4 ± 5.4 µM; in series [2], greater than 100 µM; in series [3] it was greater than 100 µM; in series [4], greater than 100 µM. Besides, the “antiproliferative activity in words, SK-MES-1” value in series [2] was “inactive”. The “antiproliferative activity in words, MRC-5” value in series [4] is “inactive”.
On to `CC(C)c1ccc2c(c1)CCC1[C@](C)(C(=O)OCCc3cn(CSc4ccccc4)nn3)CCC[C@]21C` (some centres unmarked) [Compound 4, 18-(2-(((1-Phenylthio)methyl)-1H-1,2,3-triazol-4-yl)ethyl)-8,11,13-abietatrienoate], for which the concentration for half-maximal inhibition (IC50) in series [1] worked out at 66 ± 4.4 µM; in series [2] it was 28.9 ± 2.1 µM; in series [3] it was 28.1 ± 1.7 µM; in series [4], 50.2 ± 3.1 µM.
For `CC(C)c1ccc2c(c1)CCC1[C@](C)(COC(=O)CCc3cn(-c4ccccc4)nn3)CCC[C@]21C` (some centres unmarked) [Compound 5, 18-(3-(1-Phenyl-1H-1,2,3-triazol-4-yl)propanoyloxy)-8,11,13-abietatriene], in that order: 44.5 ± 1.9 µM, 6.1 ± 0.3 µM, 83.3 ± 3.3 µM and 17.1 ± 0.6 µM.
As to `CC(C)c1ccc2c(c1)CCC1[C@](C)(COC(=O)CCCCc3cn(-c4ccccc4)nn3)CCC[C@]21C` (some centres unmarked) [Compound 6, 18-(5-(1-Phenyl-1H-1,2,3-triazol-4-yl)pentanoyloxy)-8,11,13-abietatriene], the “antiproliferative activity in words, AGS” value in series [1] (AGS cells) was “inactive”. Moreover, the IC50 in series [1], in series [2], in series [3] and in series [4] was greater than 100 µM each time. Also, the “antiproliferative activity in words, SK-MES-1” value in series [2] is “inactive”. The “antiproliferative activity in words, J82” value in series [3] (J82 cells) is “inactive”. For the same molecule, the “antiproliferative activity in words, MRC-5” value in series [4] was “inactive”.
With `CC(C)c1ccc2c(c1)CCC1[C@](C)(COC(=O)CCc3cn(Cc4ccccc4)nn3)CCC[C@]21C` (some centres unmarked) [Compound 7, 18-(3-(1-Benzyl-1H-1,2,3-triazol-4-yl)propanoyloxy)-8,11,13-abietatriene], the IC50 was 36.7 ± 1.5 µM in series [1], 39.7 ± 2.7 µM in series [2], 25.6 ± 1.9 µM in series [3] and greater than 100 µM in series [4]. The “antiproliferative activity in words, MRC-5” value in series [4] is “inactive”.
For `CC(C)c1ccc2c(c1)CCC1[C@](C)(COC(=O)CCCCc3cn(Cc4ccccc4)nn3)CCC[C@]21C` (some centres unmarked) [Compound 8, 18-(5-(1-Benzyl-1H-1,2,3-triazol-4-yl)pentanoyloxy)-8,11,13-abietatriene], in that order: 35.9 ± 1.7 µM, 37 ± 2.6 µM, 26.8 ± 1.8 µM, greater than 100 µM and “inactive”.
In the case of `CC(C)c1ccc2c(c1)CCC1[C@](C)(COC(=O)CCc3cn(CSc4ccccc4)nn3)CCC[C@]21C` (some centres unmarked) [Compound 9, 18-(3-(((1-Phenylthio)methyl)-1H-1,2,3-triazol-4-yl)propanoyloxy)-8,11,13-abietatriene], the IC50 was 47.7 ± 2.9 µM in series [1], 43.6 ± 2.9 µM in series [2], 49.9 ± 2.9 µM in series [3] and 73.3 ± 3.7 µM in series [4].
For `CC(C)c1ccc2c(c1)CCC1[C@](C)(COC(=O)CCCCc3cn(CSc4ccccc4)nn3)CCC[C@]21C` (some centres unmarked) [Compound 10] the same measures were 58.9 ± 3.4 µM, 42.7 ± 2.9 µM, 33.9 ± 1.7 µM and greater than 100 µM.
For `COc1ccc(-n2cc(CCC(=O)OC[C@]3(C)CCC[C@]4(C)c5ccc(C(C)C)cc5CCC34)nn2)cc1` (some centres unmarked) [Compound 11, 18-(3-(1-(4-Anisidyl)-1H-1,2,3-triazol-4-yl)propanoyloxy)-8,11,13-abietatriene] the same measures were greater than 100 µM, greater than 100 µM, greater than 100 µM and greater than 100 µM.
For `COc1ccc(-n2cc(CCCCC(=O)OC[C@]3(C)CCC[C@]4(C)c5ccc(C(C)C)cc5CCC34)nn2)cc1` (some centres unmarked) [Compound 12, 18-(5-(1-(4-Anisidyl)-1H-1,2,3-triazol-4-yl)pentanoyloxy)-8,11,13-abietatriene] the same measures were greater than 100 µM, greater than 100 µM, greater than 100 µM and greater than 100 µM.
As for `CC(C)c1ccc2c(c1)CCC1[C@](C)(COC(=O)CCc3cn(-c4cccc(Cl)c4)nn3)CCC[C@]21C` (some centres unmarked) [Compound 13, 18-(3-(1-(3-Chlorophenyl)-1H-1,2,3-triazol-4-yl)propanoyloxy)-8,11,13-abietatriene], the half-inhibitory concentration (IC50) in series [1], in series [2], in series [3] and in series [4] was greater than 100 µM in each case.
With `CC(C)c1ccc2c(c1)CCC1[C@](C)(COC(=O)CCCCc3cn(-c4cccc(Cl)c4)nn3)CCC[C@]21C` (some centres unmarked) [Compound 14, 18-(5-(1-(3-Chlorophenyl)-1H-1,2,3-triazol-4-yl)pentanoyloxy)-8,11,13-abietatriene], the IC50 in series [1], in series [2], in series [3] and in series [4] was greater than 100 µM throughout.
As to `Cc1ccc(S(=O)(=O)n2cc(CCC(=O)OC[C@]3(C)CCC[C@]4(C)c5ccc(C(C)C)cc5CCC34)nn2)cc1` (some centres unmarked) [Compound 15, 18-(3-(1-(4-Toluenesulfonyl)-1H-1,2,3-triazol-4-yl)propanoyloxy)-8,11,13-abietatriene], the IC50 in series [1] is 74.9 ± 3.7 µM; in series [2] it was 84.4 ± 5.1 µM; in series [3] it was greater than 100 µM; in series [4], 82.9 ± 4.5 µM.
As to `Cc1ccc(S(=O)(=O)n2cc(CCCCC(=O)OC[C@]3(C)CCC[C@]4(C)c5ccc(C(C)C)cc5CCC34)nn2)cc1` (some centres unmarked) [Compound 16, 18-(5-(1-(4-Toluenesulfonyl)-1H-1,2,3-triazol-4-yl)pentanoyloxy)-8,11,13-abietatriene], the IC50 was determined as 56.9 ± 3.3 µM in series [1], 74.2 ± 5.4 µM in series [2], 75 ± 6.1 µM in series [3] and 68.8 ± 4.5 µM in series [4].
Take `COc1cc([C@@H]2c3cc4c(cc3[C@@H](O[C@@H]3O[C@@H]5CO[C@@H](C)O[C@H]5[C@H](O)[C@H]3O)[C@H]3COC(=O)[C@H]23)OCO4)cc(OC)c1O` [Etoposide, reference compound]: the values for the IC50 in series [1] and in series [3] were 0.58 ± 0.02 µM and 3.49 ± 0.16 µM, respectively.
With `CN(C)CCN1C(=O)c2cccc3cc(N)cc(c23)C1=O` [amonafide], the IC50 in series [5] is 1.68 to 4.27 µM.
